Results published in patent US8841083B2, “PSA capture agents, compositions, methods and preparation thereof” (California Institute of Technology, priority 2011, dated 2014).

How the values were obtained:
free PSA [1] = target: T1, free PSA (Homo sapiens, UniProt P07288); assay: Dot blot of serially diluted free PSA probed with biotinylated capture agent; type: binding; conditions: for lower limit of detection: free PSA on nitrocellulose, 0.1 μM capture agent
T1 construct: purchased Scripps Laboratories P0725
Protocol: Serially diluted free PSA (Scripps Laboratories #P0725) in PBS pH 7.4 was applied to nitrocellulose by micropipette. The membrane was blocked at 4° C. for 2 hours in 5% non-fat dry milk in TBS (25 mM Tris, 150 mM NaCl, pH 7.25). The membrane was washed with TBS (3×). The biotinylated PSA capture agent was prepared at 0.1 μM in 0.5% milk in TBS+0.03% DMSO (v/v) and incubated over the membrane at 4° C. overnight. After washing with TBS (3×), the membrane was further subjected to 0.1 μg/mL HRP-conjugated Streptavidin (Abcam) in TBS containing 0.02% Tween20 (v/v) for 30 min at 4° C.

free PSA [2] = target: T1, free PSA; assay: Sandwich ELISA with capture agent as detection agent, paired with PS6 capture antibody; type: binding
Protocol: MAXISORP™ microtiter plates were coated with anti-human PSA (PS6, Abcam) at 10 μg/mL in PBS pH 7.4 for 2 hours at room temperature. After washing each microwell with PBS (3×), the plate was filled with 5% non-fat dry milk in TBS (25 mM Tris, 150 mM NaCl, pH 7.25) and blocked for 2 h at room temperature. Serially diluted free PSA (Scripps Laboratories #P0725) in 1% BSA in TBS was incubated across the microtiter plate for 2 h at room temperature. The plate was washed with 1% BSA in TBS (5×), and then 2 μM biotinylated capture agent in 1% BSA in TBS+0.1% DMSO (v/v) was incubated for 1 hour at room temperature. After washing all microwells with 1% BSA in TBS (5×), 0.1 μg/mL Streptavidin Poly-HRP conjugate (Pierce, Ill.) in 1% BSA in TBS was incubated for 30 min at room temperature. The plate was washed with 1% BSA in TBS (10×), followed by TBS (2×), and then developed by adding QuantaRed™ Enhanced Chemifluorescent HRP Substrate (Pierce, Ill.). Using an excitation wavelength of 535 nm, fluorescent emission at 595 nm was recorded by Beckman Coulter DTX880 photometer (Brea, Calif.) as a function of target concentration. The titration curves were fit using a four-parameter regression curve fitting program (Origin 8.5, Northampton, Mass.). Assays were performed in triplicate.

free PSA [3] = target: T1, free PSA; assay: Pull-down assay and Western blot; type: binding; conditions: 1 μg free PSA in TBS buffer
Protocol: The pull-down assay assessed the specificity of a PSA capture agent by measuring its ability to purify a protein from complex media; bound to the protein in buffer or human serum in solution. The PSA/capture agent complex was then physically isolated from the sample with solid-phase affinity resins. The captured samples were separated by SDS-PAGE for Western blot analysis.
Pull-down detection of PSA was performed using a modified immunoprecipitation technique that incorporated PSA capture agent rather than antibody. […] A third sample contained biotinylated PSA capture agent (0.3-0.5 μg/mL) and 1 μg free PSA in 2 mL TBS, and similarly interacted at 4° C. overnight.
Proteins were captured by BSA-blocked Dynabeads® M-280 Streptavidin (Invitrogen, #112-05D) under rotation at 4° C. for 4 hours (50 μL of 50% slurry per pull-down condition). Proteins were eluted from beads in reducing Laemmli buffer, and beads were separated from the serum or buffer by DynaMag™-Spin magnet (Invitrogen, #123-20D). Samples were subjected to 4-20% SDS-PAGE separation and electrophoretically transferred to a nitrocellulose membrane in 25 mM Tris, 192 mM Glycine, pH 8.3, containing 20% (v/v) methanol (Bio-Rad Laboratories, Hercules, Calif.) at 100 V for 45 min. Following transfer, the nitrocellulose membrane was blocked at 4° C. for 2 hours in 5% non-fat dry milk in TBS. […]

free PSA [4] = target: T1, free PSA; assay: Enzyme activity assay of PSA with chymotrypsin substrate Suc-Arg-Pro-Tyr-pNA; type: biochemical; conditions: for minimum peptide concentration affecting the activity: PSA 333 nM
Protocol: The enzyme activity of free PSA was studied in the presence of capture agent and the chymotrypsin substrate Suc-Arg-Pro-Tyr-pNA (AnaSpec, San Jose, Calif.) (see, e.g., Wu 2000). PSA (333 nM) was incubated with a 1-100-fold fold molar excess of capture agent in TBS (25 mM Tris, 150 mM NaCl) buffer, pH 7.8, for 1 hour at 23° C. Separately, the inhibitory effect of Zn^2+ on the enzyme activity of PSA was studied by including 1-200 μM ZnCl2 in the reaction buffer as a control. After addition of substrate to a final concentration 0.4 mM, the absorbance was monitored at 5-min intervals over 80 min at 405 nm on a Beckman Coulter DTX880 photometer (Brea, Calif.). Enzyme activity of PSA was tested in the absence of both Zn^2+ and capture agent to provide a measure of basal activity. All assays were performed in triplicate.

T1 sequence (P07288 25-261): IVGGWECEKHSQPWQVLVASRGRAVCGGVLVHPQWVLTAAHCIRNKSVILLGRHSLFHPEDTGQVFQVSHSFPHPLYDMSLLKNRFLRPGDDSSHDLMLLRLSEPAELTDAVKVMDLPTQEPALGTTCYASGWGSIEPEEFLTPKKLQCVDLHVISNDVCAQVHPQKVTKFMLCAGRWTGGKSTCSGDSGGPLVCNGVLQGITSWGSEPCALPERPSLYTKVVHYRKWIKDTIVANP

## biotin-PEG5-cyclic(CVFAHNYDYLVC)-Tz5-Gllffk-Tz5-rrivk [PSA capture agent triligand]
Free PSA [1]; dot blot
  performance compared to anti-human PSA monoclonal antibody PS1: superior performance
  sensitivity compared to commercial PSA monoclonal antibodies PS2, PS6: less sensitive
Free PSA [1]
  lower limit of detection: 0.14 µg
Free PSA [2]; free PSA, sandwich ELISA with PS6 capture antibody
  limit of quantitation (LOQ): ~4 ng/mL
Free PSA [2]; sandwich ELISA
  enhanced sensitivity over the PSA capture agent biligand: > 2 fold
Free PSA [3]
  pull-down detection of free PSA: detected free PSA in buffer

## [Cl-].[Cl-].[Zn+2] [Zn^2+, zinc chloride, reference compound]
Free PSA [4]
  inhibition of PSA enzyme activity: inhibits the enzyme activity of PSA

## biotin-PEG5-cyclic(CVFAHNYDYLVC)-Tz5-Gllffk [1,5Tz-biligand]
Free PSA [4]
  minimum peptide concentration affecting the activity: 0.159 µM
Free PSA [1]; dot blot, triazole regioisomers
  limit of detection compared to 1,4Tz-biligand: improved limit of detection
Free PSA [1]
  lower limit of detection: 0.14 µg

## biotin-PEG5-cyclic(CVFAHNYDYLVC)-Tz-4-Gllffk [1,4Tz-biligand]
Free PSA [1]
  lower limit of detection: 0.28 µg

## biotin-PEG5-cyclic(CVFAHNYDYLVC) [Anchor Ligand]
Free PSA [4]
  minimum peptide concentration affecting the activity: 0.250 µM
